From patent publication US10457707B2, “Substituted urea depsipeptide analogs as activators of the CLPP endopeptidase” (priority 2015, dated 2019) come the findings set out here.

Experiment [1] relates to Staphylococcus aureus, USA 300. As to the kind of experiment: Minimal inhibitory concentration assay. To be noted: USA300, read-out: Minimal Inhibitory Concentrations S. aureus USA 300. The class given is cell-based. The procedure, abridged:
(§1)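 Visual read-out; MIC is the lowest drug concentration with no bacterial growth after overnight aerobic incubation at 37 °C. Compound was tested in two-fold dilutions starting at 200 μM final, with an inoculum of approximately 10^5 cfu/mL, following CLSI microdilution guidance.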

Experiment [2] deals with Staphylococcus aureus, USA 300 wherein ClpP is inactivated. Briefly: Minimal inhibitory concentration assay. The class given is cell-based. The procedure, abridged:
as §1

SMILES strings stand for the structures. Converted amounts (≈) assume the structure as drawn. *1 amine or outer side, *2 acyl side, *3 side chain or, on linkers, in order; H or OH if unused. Where a SMILES comes first, the peptide text is derived from it. Bridges are numbered along the chain shown (N, C = ends). [ ]: non-standard residue; d: D form. The star is where a group is joined. Piperazine(2S-CO,4-Me) = CN1CCN[C@H](C(=O)O)C1; NH(1,3-benzodioxol-5-yl) = c1cc2c(cc1N*)OCO2; Phe(3,5-F2) = N[C@@H](Cc1cc(F)cc(F)c1)C(=O)O; Morpholine(3S-CO) = O=C(O)[C@@H]1COCCN1; NH(4-Cl-2-F-phenyl) = Fc1cc(Cl)ccc1N*; Pro(4R-Me) = C[C@H]1CN[C@H](C(=O)O)C1; Hyp = O=C(O)[C@@H]1C[C@@H](O)CN1; NH(4-Et-phenyl) = CCc1ccc(N*)cc1; NH(4-Me-phenyl) = Cc1ccc(N*)cc1; aThr = C[C@H](O)[C@H](N)C(=O)O; Pip = O=C(O)[C@@H]1CCCCN1; X2 = CN1CCc2ccc(N*)cc21; X1 = N#Cc1cc(N*)ccc1F; CO = O=C([*:1])[*:2] Some results are limits rather than exact numbers.

As to `C[C@@H]1C[C@H]2C(=O)O[C@@H](C)[C@H](NC(=O)[C@H](Cc3cc(F)cc(F)c3)NC(=O)Nc3ccc(Cl)cc3F)C(=O)N3C[C@H](O)C[C@H]3C(=O)N3CCOC[C@H]3C(=O)N[C@@H](C)C(=O)N2C1` [Compound 316, (S)-2-(3-(4-chloro-2-fluorophenyl)ureido)-3-(3,5-difluorophenyl)-N-((6aS,8R,12S,13S,15aS,17R,21S,23aS)-8-hydroxy-13,17,21-trimethyl-6,11,15,20,23-pentaoxooctadecahydro-6H,11H,15H-[1,4]oxazino[3,4-i]dipyrrolo[2,1-c:2′,1′-l][1]oxa[4,7,10,13]tetraazacyclo-hexadecin-12-yl)propanamide] ({NH(4-Cl-2-F-phenyl)-CO}-[Phe(3,5-F2)][aThr][Hyp][Morpholine(3S-CO)]A[Pro(4R-Me)]; ester 2-C), the MIC in experiment [1] stood at 0.156 µM (≈ 0.135 µg/mL). Besides, the “Minimal Inhibitory Concentrations S. aureus USA 300 ΔClpP” value in experiment [2] was over 20 µM.
For the molecule `Cc1ccc(NC(=O)N[C@@H](Cc2cc(F)cc(F)c2)C(=O)N[C@H]2COC(=O)[C@@H]3C[C@@H](C)CN3C(=O)[C@H](C)NC(=O)[C@@H]3COCCN3C(=O)[C@@H]3C[C@@H](O)CN3C2=O)cc1` [Compound 317, (S)-3-(3,5-difluorophenyl)-N-((6aS,8R,12S,15aS,17R,21S,23aS)-8-hydroxy-17,21-dimethyl-6,11,15,20,23-pentaoxooctadecahydro-6H,11H,15H-[1,4]oxazino[3,4-i]dipyrrolo[2,1-c:2′,1′-l][1]oxa[4,7,10,13]tetraazacyclohexadecin-12-yl)-2-(3-(p-tolyl)ureido)propanamide] ({NH(4-Me-phenyl)-CO}-[Phe(3,5-F2)]S[Hyp][Morpholine(3S-CO)]A[Pro(4R-Me)]; ester 2-C), in experiment [1], the MIC worked out at 12.5 µM (≈ 10.1 µg/mL). Further, the “Minimal Inhibitory Concentrations S. aureus USA 300 ΔClpP” value in experiment [2] is 12.5 µM.
As to `C[C@@H]1C[C@H]2C(=O)O[C@@H](C)[C@H](NC(=O)[C@H](Cc3cc(F)cc(F)c3)NC(=O)Nc3ccc4c(c3)OCO4)C(=O)N3C[C@H](O)C[C@H]3C(=O)N3CCOC[C@H]3C(=O)N[C@@H](C)C(=O)N2C1` [Compound 319, (S)-2-(3-(benzo[d][1,3]dioxol-5-yl)ureido)-3-(3,5-difluorophenyl)-N-((6aS,8R,12S,13S,15aS,17R,21S,23aS)-8-hydroxy-13,17,21-trimethyl-6,11,15,20,23-pentaoxooctadecahydro-6H,11H,15H-[1,4]oxazino[3,4-i]dipyrrolo[2,1-c:2′,1′-l][1]oxa[4,7,10,13]tetraazacyclo-hexadecin-12-yl)propanamide] ({NH(1,3-benzodioxol-5-yl)-CO}-[Phe(3,5-F2)][aThr][Hyp][Morpholine(3S-CO)]A[Pro(4R-Me)]; ester 2-C), the MIC in experiment [1] was 25 µM (≈ 21.4 µg/mL). Besides, in experiment [2], the “Minimal Inhibitory Concentrations S. aureus USA 300 ΔClpP” value turned out to be 25 µM.
As to `CCc1ccc(NC(=O)N[C@@H](Cc2cc(F)cc(F)c2)C(=O)N[C@@H]2C(=O)N3C[C@H](O)C[C@H]3C(=O)N3CCOC[C@H]3C(=O)N[C@@H](C)C(=O)N3C[C@H](C)C[C@H]3C(=O)O[C@H]2C)cc1` [Compound 320, (S)-3-(3,5-difluorophenyl)-2-(3-(4-ethylphenyl)ureido)-N-((6aS,8R,12S,13S,15aS,17R,21S,23aS)-8-hydroxy-13,17,21-trimethyl-6,11,15,20,23-pentaoxooctadecahydro-6H,11H,15H-[1,4]oxazino[3,4-i]dipyrrolo[2,1-c:2′,1′-l][1]oxa[4,7,10,13]-tetraazacyclohexadecin-12-yl)propanamide] ({NH(4-Et-phenyl)-CO}-[Phe(3,5-F2)][aThr][Hyp][Morpholine(3S-CO)]A[Pro(4R-Me)]; ester 2-C), the MIC in experiment [1] is 0.781 µM (≈ 0.656 µg/mL). The “Minimal Inhibitory Concentrations S. aureus USA 300 ΔClpP” value in experiment [2] was determined as 0.7812 µM.
On the same counts, the results for `C[C@@H]1C[C@H]2C(=O)O[C@@H](C)[C@H](NC(=O)[C@H](Cc3cc(F)cc(F)c3)NC(=O)Nc3ccc4c(c3)N(C)CC4)C(=O)N3CCC[C@H]3C(=O)N3CCCC[C@H]3C(=O)N[C@@H](C)C(=O)N2C1` [Compound 321, (S)-3-(3,5-difluorophenyl)-2-(3-(1-methylindolin-6-yl)ureido)-N-((2R,6S,8aS,14aS,20S,21S,23aS)-2,6,21-trimethyl-5,8,14,19,23-pentaoxooctadecahydro-1H,5H,14H,19H-pyrido[2,1-i]dipyrrolo[2,1-c:2′,1′-l][1]oxa[4,7,10,13]tetraazacyclo-hexadecin-20-yl)propanamide] ({X2-CO}-[Phe(3,5-F2)][aThr]P[Pip]A[Pro(4R-Me)]; ester 2-C) are under 0.098 µM and under 0.098 µM.
On the same counts, the results for `Cc1ccc(NC(=O)N[C@@H](Cc2cc(F)cc(F)c2)C(=O)N[C@H]2COC(=O)[C@@H]3C[C@@H](C)CN3C(=O)[C@H](C)NC(=O)C3CCCCN3C(=O)[C@@H]3C[C@@H](O)CN3C2=O)cc1` (stereo partly drawn) [Compound 323, (S)-3-(3,5-difluorophenyl)-N-((2R,6S,8aR,14aS,16R,20S,23aS)-16-hydroxy-2,6-dimethyl-5,8,14,19,23-pentaoxooctadecahydro-1H,5H,14H,19H-pyrido[2,1-i]dipyrrolo[2,1-c:2′,1′-l][1]oxa[4,7,10,13]tetraazacyclohexadecin-20-yl)-2-(3-(p-tolyl)ureido)propanamide] are 1.25 µM (≈ 1.01 µg/mL) and over 20 µM.
For `C[C@@H]1C[C@H]2C(=O)O[C@@H](C)[C@H](NC(=O)[C@H](Cc3cc(F)cc(F)c3)NC(=O)Nc3ccc(F)c(C#N)c3)C(=O)N3CCC[C@H]3C(=O)N3CCCC[C@H]3C(=O)N[C@@H](C)C(=O)N2C1` [Compound 324, (S)-2-(3-(3-cyano-4-fluorophenyl)ureido)-3-(3,5-difluorophenyl)-N-((2R,6S,8aS,14aS,20S,21S,23aS)-2,6,21-trimethyl-5,8,14,19,23-pentaoxooctadecahydro-1H,5H,14H,19H-pyrido[2,1-i]dipyrrolo[2,1-c:2′,1′-l][1]oxa[4,7,10,13]tetraazacyclo-hexadecin-20-yl)propanamide] ({X1-CO}-[Phe(3,5-F2)][aThr]P[Pip]A[Pro(4R-Me)]; ester 2-C) the same measures were 0.625 µM (≈ 0.523 µg/mL) and over 20 µM.
`C[C@@H]1C[C@H]2C(=O)OC[C@H](NC(=O)[C@H](Cc3cc(F)cc(F)c3)NC(=O)Nc3ccc4c(c3)OCO4)C(=O)N3C[C@H](O)C[C@H]3C(=O)N3CCCCC3C(=O)N[C@@H](C)C(=O)N2C1` (stereo partly drawn) [Compound 325, (S)-2-(3-(benzo[d][1,3]dioxol-5-yl)ureido)-3-(3,5-difluorophenyl)-N-((2R,6S,8aR,14aS,16R,20S,23aS)-16-hydroxy-2,6-dimethyl-5,8,14,19,23-pentaoxooctadecahydro-1H,5H,14H,19H-pyrido[2,1-i]dipyrrolo[2,1-c:2′,1′-l][1]oxa[4,7,10,13]tetraazacyclo-hexadecin-20-yl)propanamide]: the MIC in experiment [1] is 2.5 µM (≈ 2.1 µg/mL). The “Minimal Inhibitory Concentrations S. aureus USA 300 ΔClpP” value in experiment [2] was over 20 µM.
For `C[C@@H]1C[C@H]2C(=O)O[C@@H](C)[C@H](NC(=O)[C@H](Cc3cc(F)cc(F)c3)NC(=O)Nc3ccc(F)c(C#N)c3)C(=O)N3C[C@H](O)C[C@H]3C(=O)N3CCOC[C@H]3C(=O)N[C@@H](C)C(=O)N2C1` [Compound 326, (S)-2-(3-(3-cyano-4-fluorophenyl)ureido)-3-(3,5-difluorophenyl)-N-((6aS,8R,12S,13S,15aS,17R,21S,23aS)-8-hydroxy-13,17,21-trimethyl-6,11,15,20,23-pentaoxooctadecahydro-6H,11H,15H-[1,4]oxazino[3,4-i]dipyrrolo[2,1-c:2′,1′-l][1]oxa[4,7,10,13]tetraazacyclo-hexadecin-12-yl)propanamide] ({X1-CO}-[Phe(3,5-F2)][aThr][Hyp][Morpholine(3S-CO)]A[Pro(4R-Me)]; ester 2-C) the same measures were 20 µM (≈ 17.1 µg/mL) and over 20 µM.
As to `C[C@@H]1C[C@H]2C(=O)O[C@@H](C)[C@H](NC(=O)[C@H](Cc3cc(F)cc(F)c3)NC(=O)Nc3ccc(Cl)cc3F)C(=O)N3C[C@H](O)C[C@H]3C(=O)N3CCCC[C@H]3C(=O)N[C@@H](C)C(=O)N2C1` [Compound 329, (S)-2-(3-(4-chloro-2-fluorophenyl)ureido)-3-(3,5-difluorophenyl)-N-((2R,6S,8aS,14aS,16R,20S,21S,23aS)-16-hydroxy-2,6,21-trimethyl-5,8,14,19,23-pentaoxooctadecahydro-1H,5H,14H,19H-pyrido[2,1-i]dipyrrolo[2,1-c:2′,1′-l][1]oxa[4,7,10,13]tetraazacyclo-hexadecin-20-yl)propanamide] ({NH(4-Cl-2-F-phenyl)-CO}-[Phe(3,5-F2)][aThr][Hyp][Pip]A[Pro(4R-Me)]; ester 2-C), in experiment [1], the MIC amounted to 0.039 µM (≈ 0.0336 µg/mL). In experiment [2], the “Minimal Inhibitory Concentrations S. aureus USA 300 ΔClpP” value turned out to be 50 µM.
On the same counts, the results for `C[C@@H]1C[C@H]2C(=O)OC[C@H](NC(=O)[C@H](Cc3cc(F)cc(F)c3)NC(=O)Nc3ccc(Cl)cc3F)C(=O)N3CCC[C@H]3C(=O)N3CCN(C)C[C@H]3C(=O)N[C@@H](C)C(=O)N2C1` [Compound 330, (S)-2-(3-(4-chloro-2-fluorophenyl)ureido)-3-(3,5-difluorophenyl)-N-((6aS,12S,15aS,17R,21S,23aS)-2,17,21-trimethyl-6,11,15,20,23-pentaoxooctadecahydro-2H,6H,11H,15H-pyrazino[2,1-i]dipyrrolo[2,1-c:2′,1′-l][1]oxa[4,7,10,13]tetraazacyclohexadecin-12-yl)propanamide] ({NH(4-Cl-2-F-phenyl)-CO}-[Phe(3,5-F2)]SP[Piperazine(2S-CO,4-Me)]A[Pro(4R-Me)]; ester 2-C) are 0.156 µM (≈ 0.132 µg/mL) and over 20 µM.
